Source: patent US9187429B2, “Phenyl-tetrahydroisoquinoline derivatives” (Hoffmann-La Roche Inc., priority 2012, dated 2015)
Structures can show the parent of a compound that is named as a salt.

Key:
CYP11B2 = CYP11B2 (Homo sapiens (Human), UniProt P19099); test: G-402 cellular enzyme assay, human CYP11B2 (aldosterone release); assay type: cell-based; details: G-402 cells expressing human CYP11B2, 1 μM Deoxycorticosterone
Description: (§1) The expression plasmids contains the ORF for either human/cyno CYP11B1 or CYP11B2 under the control of a suitable promoter (CMV-promoter) and a suitable resistance marker (neomycin). Using standard techniques the expression plasmid is transfected into G-402 cells and these cells are then selected for expressing the given resistance markers. Individual cell-clones are then selected and assessed for displaying the desired enzymatic activity using 11-Deoxycorticosterone (Cyp 11B2) or 11-Deoxycortisol (Cyp 11B1) as a substrate.
(§2) G-402 cells expressing CYP11 constructs were established as described above and maintained in McCoy's 5a Medium Modified, ATCC Catalog No. 30-2007 containing 10% FCS and 400 μg/ml G418 (Geneticin) at 37° C. under an atmosphere of 5% CO2/95% air. […] For assaying enzymatic activity, cells were plated onto 96 well plates and incubated for 16 h. An aliquot of the supernatant is then transferred and analyzed for the concentration of the expected product (Aldosterone for CYP11B2; Cortisol for CYP11B1). The concentrations of these steroids can be determined using HTRF assays from CisBio analyzing either Aldosterone or Cortisol.
(§3) Inhibition of the release of produced steroids can be used as a measure of the respective enzyme inhibition by test compounds added during the cellular enzyme assay. The dose dependent inhibition of enzymatic activity by a compound is calculated by means of plotting added inhibitor concentrations (x-axes) vs. measured steroid/product level (y-axes). The inhibition is then calculated by fitting the following 4-parameter sigmoidal function (Morgan-Mercer-Flodin (MMF) model) to the raw data points using the least squares method:
(§4) [formula] wherein, A is the maximum y value, B is the EC50 factor determined using XLFit, C is the minimum y value and D is the slope value.
(§5) EC50 values for compounds claimed herein were tested with the G402-based assay system described. Cyp 11B2 enzyme activity was tested in presence of 1 μM Deoxycorticosterone and variable amounts of inhibitors; Cyp 11B1 enzyme activity was tested in presence of 1 μM Deoxycortisol and variable amounts of inhibitors.

human CYP11B1 = human CYP11B1 (Homo sapiens (Human), UniProt P15538); test: G-402 cellular enzyme assay, human CYP11B1 (cortisol release); assay type: cell-based; details: G-402 cells expressing human CYP11B1, 1 μM Deoxycortisol
Chain of human CYP11B1 (P15538 25-503): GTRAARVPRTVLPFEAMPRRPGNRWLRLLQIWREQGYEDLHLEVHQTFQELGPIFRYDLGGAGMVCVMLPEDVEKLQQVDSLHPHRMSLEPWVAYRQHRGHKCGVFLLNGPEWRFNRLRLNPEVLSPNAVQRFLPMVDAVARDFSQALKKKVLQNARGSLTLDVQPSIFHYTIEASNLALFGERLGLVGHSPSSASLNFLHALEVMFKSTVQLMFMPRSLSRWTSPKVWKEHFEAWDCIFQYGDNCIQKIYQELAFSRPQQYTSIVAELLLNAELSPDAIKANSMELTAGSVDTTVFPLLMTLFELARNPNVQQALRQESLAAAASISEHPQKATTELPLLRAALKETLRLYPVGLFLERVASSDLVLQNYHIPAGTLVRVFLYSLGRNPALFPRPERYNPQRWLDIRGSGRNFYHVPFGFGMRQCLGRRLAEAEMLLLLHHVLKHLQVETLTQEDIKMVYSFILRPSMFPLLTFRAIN
Description: as §1, §2, §3, §4, §5

Chain of CYP11B2 (P19099 25-503): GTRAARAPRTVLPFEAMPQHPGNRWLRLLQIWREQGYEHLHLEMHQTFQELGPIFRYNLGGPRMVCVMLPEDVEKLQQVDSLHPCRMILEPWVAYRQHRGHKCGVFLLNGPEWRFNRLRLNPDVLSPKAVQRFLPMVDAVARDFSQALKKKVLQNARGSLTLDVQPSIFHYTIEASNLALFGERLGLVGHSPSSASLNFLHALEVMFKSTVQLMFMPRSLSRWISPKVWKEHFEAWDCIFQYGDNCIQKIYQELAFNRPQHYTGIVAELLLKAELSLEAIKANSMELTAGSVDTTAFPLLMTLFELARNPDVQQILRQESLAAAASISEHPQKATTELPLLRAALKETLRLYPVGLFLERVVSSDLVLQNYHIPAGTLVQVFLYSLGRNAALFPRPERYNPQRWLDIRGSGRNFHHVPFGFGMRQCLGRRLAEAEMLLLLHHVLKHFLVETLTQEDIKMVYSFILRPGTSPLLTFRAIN

Structure (SMILES) | EC50 (CYP11B2) [nM] | EC50 (human CYP11B1) [nM]
CCC(=O)NC1CCCc2c(-c3ccc(F)c(C)c3)cncc21 (racemic) [Example 27, (rac)-N-(4-(4-Fluoro-3-methylphenyl)-5,6,7,8-tetrahydroisoquinolin-8-yl)propionamide] | 14 | 625
CCS(=O)(=O)NC1CCc2c(-c3ccc(C(F)(F)F)c(F)c3)cncc21 (single isomer, unassigned; (+)) [Example 73, (+)-(R or S)—N-(4-(3-Fluoro-4-(trifluoromethyl)phenyl)-6,7-dihydro-5H-cyclopenta[c]pyridin-7-yl)ethanesulfonamide] | 44.4 | 1870
OC1CCCc2c(-c3ccc(C(F)(F)F)cc3)cncc21 (single isomer, unassigned; (+)) [Example 106, (+)-(R or S)-4-(4-(Trifluoromethyl)phenyl)-5,6,7,8-tetrahydroisoquinolin-8-ol] | 4.6 | 159
O=S(=O)(NC1CCc2c(-c3ccc(C(F)(F)F)c(F)c3)cncc21)C1CC1 (racemic) [Example 91, (rac)-Cyclopropanesulfonic acid [4-(3-fluoro-4-trifluoromethyl-phenyl)-6,7-dihydro-5H-[2]pyrindin-7-yl]-amide] | 301 | 389
CCC(=O)NC1CCc2c(-c3ccc(Cl)c(F)c3)cncc21 (single isomer, unassigned; (+)) [Example 57, (+)-(R or S)—N-(4-(4-Chloro-3-fluorophenyl)-6,7-dihydro-5H-cyclopenta[c]pyridin-7-yl)propionamide] | 7 | 103
CCC(=O)NC1CCCc2c(-c3ccc(F)c(Cl)c3)cncc21 (racemic) [Example 20, (rac)-N-(4-(3-Chloro-4-fluorophenyl)-5,6,7,8-tetrahydroisoquinolin-8-yl)propionamide] | 24 | 480
CCS(=O)(=O)NC1CCc2c(-c3ccc(C(F)(F)F)cc3)cncc21 (racemic) [Example 64, (rac)-N-(4-(4-(Trifluoromethyl)phenyl)-6,7-dihydro-5H-cyclopenta[c]pyridin-7-yl)ethanesulfonamide] | 730 | 12700
N#Cc1ccc(-c2cncc3c2CCCC3O)cc1 (racemic) [Example 11, (rac)-4-(8-Hydroxy-5,6,7,8-tetrahydroisoquinolin-4-yl)benzonitrile] | 8 | 31
CCC(=O)NC1CCCc2c(-c3ccc(C(F)(F)F)cc3F)cncc21 (single isomer, unassigned; (-)) [Example 34, (−)-(S or R)—N-(4-(2-Fluoro-4-(trifluoromethyl)phenyl)-5,6,7,8-tetrahydroisoquinolin-8-yl)propionamide] | 4490 | 42400
CCC(=O)NC1CCc2c(-c3ccc(F)c(C)c3)cncc21 (single isomer, unassigned; (+)) [Example 60, (+)-(R or S)—N-(4-(4-Fluoro-3-methylphenyl)-6,7-dihydro-5H-cyclopenta[c]pyridin-7-yl)propionamide] | 2 | 64
CCC(=O)NC1CCCc2c(-c3ccc(C(F)(F)F)cc3F)cncc21 (single isomer, unassigned; (+)) [Example 35, (+)-(R or S)—N-(4-(2-Fluoro-4-(trifluoromethyl)phenyl)-5,6,7,8-tetrahydroisoquinolin-8-yl)propionamide] | 71 | 6680
C[C@@H](O)C(=O)NC1CCCc2c(-c3ccc(C(F)(F)F)cc3)cncc21 (stereo partly drawn) [Example 46, (R)-2-Hydroxy-N—[(S,R)-4-(4-trifluoromethyl-phenyl)-5,6,7,8-tetrahydro-isoquinolin-8-yl]-propionamide] | 160 | 3760
CC(=O)N[C@@H]1CCCc2c(-c3ccc(C(F)(F)F)cc3)cncc21 [Example 77, (+)-(R)—N-(4-(4-(Trifluoromethyl)phenyl)-5,6,7,8-tetrahydroisoquinolin-8-yl)acetamide] | 58.8 | 2240
COC1CCCc2c(-c3ccc(C#N)cc3)cncc21 (racemic) [Example 13, (rac)-4-(8-Methoxy-5,6,7,8-tetrahydroisoquinolin-4-yl)benzonitrile] | 10 | 8
C[C@@H](O)C(=O)NC1CCc2c(-c3ccc(C(F)(F)F)cc3)cncc21 (stereo partly drawn) [Example 52, (R)-2-Hydroxy-N—((R,S)-4-(4-(trifluoromethyl)phenyl)-6,7-dihydro-5H-cyclopenta[c]pyridin-7-yl)propanamide] | 203 | 3710
CCC(=O)N[C@@H]1c2cncc(-c3ccc(C(F)(F)F)cc3)c2CC[C@@H]1C (single isomer, unassigned) [Example 68, N-[(7S,8S or 7R,8R)-7-Methyl-4-(4-trifluoromethyl-phenyl)-5,6,7,8-tetrahydro-isoquinolin-8-yl]-propionamide] | 658 | 10700
CN(C)C(=O)COC1CCc2c(-c3ccc(C(F)(F)F)cc3)cncc21 (racemic) [Example 101, (rac)-N,N-Dimethyl-2-(4-(4-(trifluoromethyl)phenyl)-6,7-dihydro-5H-cyclopenta[c]pyridin-7-yloxy)acetamide] | 26.9 | 1270

Further compounds by falling EC50 (CYP11B2), results first:

EC50 (CYP11B2) [nM] | EC50 (human CYP11B1) [nM] | Structure (SMILES)
226 | 30400 | CCC(=O)NC1CCCc2c(-c3ccc(F)c(C)c3)cncc21 (single isomer, unassigned; (-)) [Example 28, (−)-(S or R)—N-(4-(4-Fluoro-3-methylphenyl)-5,6,7,8-tetrahydroisoquinolin-8-yl)propionamide]
109 | 2400 | CCC(=O)NC1CCCc2c(-c3ccc(F)cc3F)cncc21 (racemic) [Example 42, (rac)-N-(4-(2,4-Difluorophenyl)-5,6,7,8-tetrahydroisoquinolin-8-yl)propionamide]
107 | 1670 | OC1CCCc2c(-c3ccc(C(F)(F)F)cc3)cncc21 (single isomer, unassigned; (-)) [Example 105, (−)-(S or R)-4-(4-(Trifluoromethyl)phenyl)-5,6,7,8-tetrahydroisoquinolin-8-ol]
65.9 | 1190 | O=C(O)COC1CCc2c(-c3ccc(C(F)(F)F)cc3)cncc21 (racemic) [Example 99, (rac)-2-(4-(4-(Trifluoromethyl)phenyl)-6,7-dihydro-5H-cyclopenta[c]pyridin-7-yloxy)acetic acid hydrochloride]
54.7 | 1380 | NC1CCc2c(-c3ccc(C(F)(F)F)c(F)c3)cncc21 (racemic) [Example 89, (rac)-4-(3-Fluoro-4-trifluoromethyl-phenyl)-6,7-dihydro-5H-[2]pyrindin-7-ylamine]
47 | 826 | CCC(=O)NC1CCCc2c(-c3ccc(F)c(F)c3)cncc21 (racemic) [Example 44, (rac)-N-(4-(3,4-Difluorophenyl)-5,6,7,8-tetrahydroisoquinolin-8-yl)propionamide]
31 | 3690 | CCC(=O)NC1CCCc2c(-c3ccc(C(F)(F)F)cc3)cncc21 (single isomer, unassigned; (+)) [Example 23, (+)-(R or S)—N-(4-(4-(Trifluoromethyl)phenyl)-5,6,7,8-tetrahydroisoquinolin-8-yl)propionamide]
19 | 617 | CCC(=O)NC1CCCc2c(-c3ccc(Cl)cc3F)cncc21 (single isomer, unassigned; (+)) [Example 32, (+)-(R or S)—N-(4-(4-Chloro-2-fluorophenyl)-5,6,7,8-tetrahydroisoquinolin-8-yl)propionamide]
17 | 503 | CCC(=O)NC1CCCc2c(-c3ccc(Cl)cc3)cncc21 (single isomer, unassigned; (+)) [Example 26, (+)-(R or S)—N-(4-(4-Chlorophenyl)-5,6,7,8-tetrahydroisoquinolin-8-yl)propionamide]
16.9 | 740 | OC1CCc2c(-c3ccc(C(F)(F)F)cc3)cncc21 (racemic) [Example 83, (rac)-4-(4-(Trifluoromethyl)phenyl)-6,7-dihydro-5H-cyclopenta[c]pyridin-7-ol]
16 | 1810 | CCC(=O)NC1CCCc2c(-c3ccc(C(F)(F)F)c(F)c3)cncc21 (single isomer, unassigned; (+)) [Example 41, (+)-(R or S)—N-(4-(3-Fluoro-4-(trifluoromethyl)phenyl)-5,6,7,8-tetrahydroisoquinolin-8-yl)propionamide]
5 | 21 | Cc1ccc(C2(O)CCCc3c(-c4ccc(C#N)cc4)cncc32)cc1C (single isomer, unassigned; (+)) [Example 15, (+)-(S or R)-4-(8-(3,4-Dimethylphenyl)-8-hydroxy-5,6,7,8-tetrahydroisoquinolin-4-yl)benzonitrile]
